Experiments:
Assay in all cases: Fungicidal effect on infected agar nutrient media, colony diameter
Assay type in all cases: cell-based
Penicillium cyclopium = details: 7th day after treatment, untreated 26.5
Protocol: (§1) Agar nutrient media (Diameter 70 MM, thickness 10 mm) infected by Sclerotonia sclerotinia suspension are treated with 20 EC formulations prepared according to Example 27 and comprising 1, 10, 100 and 1000 ppm, respectively of the active ingredient of the Formula I. The fungicidal effect of the compositions is evaluated on the 3rd day after treatment by measuring the diameter of the Fungi colonies.
The series of measureents described in Example 35 is carried out except that the agar nutrient media are infected by a Penicillium cyclopium Fungi strain and the test is evaluated on the 7th day after treatment.

Alternaria tenuis = details: 5th day after treatment, untreated control 36.8
Protocol: as §1
The series of measurements according to Example 35 is carried out except that the agar nutrient media are infected by Alternaria Tenius and evaluation is accomplished on the 5th day after treatment.

Sclerotinia sclerotinia = details: 3rd day after treatment, untreated control 41.7
Protocol: as §1

Compound | Diameter of colony (mm) (Penicillium cyclopium; 1 ppm) | Diameter of colony (mm) (Penicillium cyclopium; 10 ppm) | Diameter of colony (mm) (Penicillium cyclopium; 100 ppm) | Diameter of colony (mm) (Penicillium cyclopium; 1000 ppm) | Diameter of colony (mm) (Alternaria tenuis; 1 ppm) | Diameter of colony (mm) (Alternaria tenuis; 10 ppm) | Diameter of colony (mm) (Alternaria tenuis; 100 ppm) | Diameter of colony (mm) (Alternaria tenuis; 1000 ppm) | Diameter of colony (mm) (Sclerotinia sclerotinia; 1 ppm) | Diameter of colony (mm) (Sclerotinia sclerotinia; 10 ppm) | Diameter of colony (mm) (Sclerotinia sclerotinia; 100 ppm) | Diameter of colony (mm) (Sclerotinia sclerotinia; 1000 ppm)
S=P1(OCCBr)OCCS1 (stereo not drawn) [Compound 2, 2-(O-2'-bromoethyl)-2-thio-1,3,2-oxathiophospholane] | 24.6 mm | 19.0 mm | 8.4 mm | 0 mm | 30.9 mm | 26.1 mm | 5.3 mm | 0 mm | 32.9 mm | 29.3 mm | 3.1 mm | 0 mm
S=P1(OCCI)OCCS1 (stereo not drawn) [Compound 3, 2-(O-2'-iodoethyl)-2-thio1,3,2-oxathiophospholane] | 25.0 mm | 18.6 mm | 7.1 mm | 0 mm | 34.6 mm | 22.4 mm | 6.8 mm | 0 mm | 37.4 mm | 30.0 mm | 2.1 mm | 0 mm
CC1CSP(=S)(OCCCl)O1 (stereo not drawn) [Compound 4, 2-(0-2'-chloroethyl)-2-thio-5-methyl-1,3,2-oxathiophospholane] | 24.1 mm | 19.4 mm | 9.0 mm | 0 mm | 32.6 mm | 23.7 mm | 6.5 mm | 0 mm | 34.6 mm | 27.6 mm | 0 mm | 0 mm
CC1CSP(=S)(OCCBr)O1 (stereo not drawn) [Compound 5] | 20.1 mm | 19.5 mm | 7.8 mm | 0 mm | 34.9 mm | 22.3 mm | 7.9 mm | 0 mm | 35.4 mm | 29.2 mm | 1.7 mm | 0 mm
CC1CSP(=S)(OCCI)O1 (stereo not drawn) [Compound 6] | 21.3 mm | 17.3 mm | 9.0 mm | 0 mm | 35.5 mm | 21.0 mm | 6.0 mm | 0 mm | 39.3 mm | 30.0 mm | 1.0 mm | 0 mm
CC1COP(=S)(OCCCl)S1 (stereo not drawn) [Compound 7] | 25.4 mm | 16.7 mm | 8.8 mm | 0 mm | 34.7 mm | 25.5 mm | 5.9 mm | 0 mm | 38.1 mm | 31.2 mm | 0 mm | 0 mm
CC1COP(=S)(OCCBr)S1 (stereo not drawn) [Compound 8] | 20.0 mm | 18.3 mm | 7.9 mm | 0 mm | 30.1 mm | 26.1 mm | 6.4 mm | 0 mm | 37.6 mm | 29.9 mm | 1.0 mm | 0 mm
CC1COP(=S)(OCCI)S1 (stereo not drawn) [Compound 9, 2-(0-2'-iodoethyl)-2-thio-4-methyl-1,3,2-oxathiophospholane] | 23.2 mm | 15.8 mm | 5.7 mm | 0 mm | 30.6 mm | 24.6 mm | 8.9 mm | 0 mm | 39.2 mm | 27.6 mm | 3.9 mm | 0 mm
CC(CCl)OP1(=S)OCCS1 (stereo not drawn) [Compound 10, 2-(0-1'-methyl-2'-chloroethyl)-2-thio-1,3,2-oxathiophospholane] | 21.3 mm | 19.0 mm | 6.8 mm | 0 mm | 33.9 mm | 21.6 mm | 5.8 mm | 0 mm | 40.1 mm | 31.3 mm | 1.8 mm | 0 mm
CC(CBr)OP1(=S)OCCS1 (stereo not drawn) [Compound 11] | 24.1 mm | 17.5 mm | 8.3 mm | 0 mm | 35.9 mm | 24.1 mm | 4.6 mm | 0 mm | 34.6 mm | 30.6 mm | 2.8 mm | 0 mm
